Key:
MCL-1ΔNΔC [1] = experiment: High-throughput competitive FP binding screen, FITC-MCL-1 SAHB/MCL-1ΔNΔC interaction; settings: selectivity for MCL-1ΔNΔC over BCL-XLΔC targeting (BCL-XL % Bound minus MCL-1 % Bound)
MCL-1ΔNΔC [2] = target: MCL-1ΔNΔC (Homo sapiens, UniProt Q07820); experiment: as above; set-up: the C-terminal alpha-helix was deleted from each of these constructs; GST (N, cleaved yes); made in house; settings: FITC-MCL-1 SAHB/MCL-1ΔNΔC interaction pair, competitive FP screen
BCL-XLΔC = BCL-XLΔC (Homo sapiens, UniProt Q07817); experiment: High-throughput competitive FP binding screen, FITC-BAD BH3/BCL-XLΔC interaction; settings: FITC-BAD BH3/BCL-XLΔC interaction pair, competitive FP screen
BCL-XLΔC, sequence (Q07817 1-212 limits assumed, stated change not applied): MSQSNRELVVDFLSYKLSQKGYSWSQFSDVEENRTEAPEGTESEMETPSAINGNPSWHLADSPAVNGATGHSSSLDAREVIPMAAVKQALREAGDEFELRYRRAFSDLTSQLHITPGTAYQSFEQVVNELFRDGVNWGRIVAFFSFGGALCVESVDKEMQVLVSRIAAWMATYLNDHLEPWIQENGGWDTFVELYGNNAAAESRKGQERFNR

MCL-1ΔNΔC (Homo sapiens, UniProt Q07820), sequence (Q07820 172-320 limits assumed, stated change not applied): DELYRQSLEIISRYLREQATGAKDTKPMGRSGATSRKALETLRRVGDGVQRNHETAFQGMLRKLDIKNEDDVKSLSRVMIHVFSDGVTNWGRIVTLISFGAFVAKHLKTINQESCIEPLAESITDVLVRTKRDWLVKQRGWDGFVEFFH

| Structure (SMILES) | Spec Values (MCL-1ΔNΔC [1]) | MCL-1% Bound (MCL-1ΔNΔC [2]) [%] | BCL-XL % Bound (BCL-XLΔC) [%] |
| --- | --- | --- | --- |
| Cc1conc1NC(c1cccs1)c1ccc2cccnc2c1O (stereo not drawn) | 45.42 | 58.33 | 103.8 |
| CC(C)Cn1c2ccc(Cl)cc2c2nc3ccccc3nc21 | 57.12 | 32.32 | 89.44 |
| COc1ccc(C2=CC(=O)C=CC2=O)cc1 | 56.64 | 35.4 | 92.03 |
| Oc1ccc(NCc2ccc(Br)cc2)cc1 | 56.32 | 34.63 | 90.95 |
| CCN(CC)S(=O)(=O)c1ccc(-c2ccc(/C=N/N=C3\NC(=O)C(CC(=O)Nc4ccccc4)S3)o2)cc1 (stereo not drawn) | 56.3 | 44.37 | 100.7 |
| N#C/C(=C\C=C\c1ccco1)C(N)=S | 55.72 | 7.822 | 63.54 |
| O=C(CSc1ncc(C(F)(F)F)cc1Cl)NC(=O)CN1CCCC1=O | 55.6 | 43.37 | 98.97 |
| N#CC(C#N)=C(C#N)c1ccc(-c2ccccc2)[nH]1 | 55.59 | 35.11 | 90.7 |
| C/C(=N\OCc1ccc(C(=O)N2CCCCC2)o1)c1cccc(C(F)(F)F)c1 | 55.34 | 55.48 | 110.8 |
| CCOc1ccc2c(c1)C(C)=CC(C)(C)N2C(=O)CSc1nnc(C2CC2)n1C | 55.24 | 40.13 | 95.37 |
| CCc1ccc2c(c1)C1(NN=C(c3ccccc3)S1)C(=O)N2 (stereo not drawn) | 55.23 | 44.19 | 99.43 |
| Cc1cccc(NC(=O)CSc2nncc(=O)[nH]2)c1 | 55 | 27.28 | 82.27 |
| Cc1ccc(C)n1Cc1ccc(C(=O)O)cc1 | 54.85 | 36.6 | 91.45 |
| Fc1ccccc1OCCSc1nnc2c(n1)[nH]c1ccccc12 | 54.35 | 45.2 | 99.56 |
| O=C(O)C1CCCN(c2nn3cc(-c4ccc(F)cc4)nc3s2)C1 (stereo not drawn) | 53.98 | 28.04 | 82.02 |
| CCOc1cccc(/C=N/n2c(S)nnc2-c2ccc(Cl)cc2)c1O | 53.75 | 42.83 | 96.58 |
| CCCCCOc1ccc(C(=O)/C=C/C(=O)O)cc1 | 53.61 | 43.85 | 97.46 |
| Cc1nc2sccn2c1-c1nc(-c2ccc(Br)o2)c(C(=O)c2ccc3c(c2)OCCO3)s1 | 53.55 | 39.75 | 93.3 |
| CC1CCC[SH](c2cc(O)ccc2O)C1 (stereo not drawn) | 53.57 | 41.16 | 94.72 |
| O=c1c(O)cccc2cc(O)c(O)c(O)c12 | 53.55 | −19.81 | 33.74 |
| CC(/N=C/c1cccc(O)c1O)c1ccccc1 (stereo not drawn) | 53.29 | 40.42 | 93.71 |
| O=C(CSc1nnc(-c2ccoc2)c(-c2ccoc2)n1)c1ccc(-c2ccccc2)cc1 | 53.14 | 45.38 | 98.52 |
| Oc1ccc(CNc2ccccc2O)cc1 | 53.12 | 36.26 | 89.38 |
| NC1=C(c2nc3ccccc3s2)CC(=O)N1CCc1ccccc1 | 52.91 | 55.57 | 108.5 |
| O=C(/C=C/c1ccco1)NC(=S)Nc1ccccc1C(F)(F)F | 52.25 | 47.01 | 99.25 |
| CCN1C(=O)C2Cc3cc(OC)c(OC)cc3CN2C1=S (stereo not drawn) | 51.9 | 39.84 | 91.73 |
| CCn1c(-c2ccccc2)cnc1S | 51.73 | 54.03 | 105.8 |
| Cc1ccc(NCc2n[nH]c(=S)n2-c2ccccc2)cc1 | 51.62 | 43.22 | 94.84 |
| COc1ccc(-n2nc3cc(C)c(N)c(Br)c3n2)cc1 | 51.41 | 32.56 | 83.97 |

More lines, now with the values ahead:

| Spec Values (MCL-1ΔNΔC [1]) | MCL-1% Bound (MCL-1ΔNΔC [2]) [%] | BCL-XL % Bound (BCL-XLΔC) [%] | Structure (SMILES) |
| --- | --- | --- | --- |
| 57.32 | 48.94 | 106.3 | c1coc(C2Nc3cccc4cccc(c34)N2)c1 |
| 56.89 | 38.73 | 95.63 | c1cc(CNc2ccc(N3CCCC3)cc2)ccn1 |
| 56.05 | 45.62 | 101.7 | O=C1CSCC(=O)N1c1cc(C(F)(F)F)cc(C(F)(F)F)c1 |
| 55.93 | 41.14 | 97.07 | O=C1C=CC(=O)N1CCc1ccc(Cl)cc1 |
| 55.69 | 45.56 | 101.3 | O=C1C=CC(=O)C(Sc2nnnn2-c2ccccc2)=C1 |
| 55.6 | 43.77 | 99.37 | Cc1ccc2n1CCn1cc(-c3ccc(Br)cc3)cc1-2 |
| 55.41 | 35.03 | 90.45 | c1ccc2c(c1)nc(Nc1ccc(N3CCCCC3)cc1)c1nncn12 |
| 54.73 | 37.48 | 92.21 | CC(C)CNC(=O)CCc1nc(-c2ccccc2)no1 |
| 54.04 | 32.6 | 86.64 | N#Cc1cc2c([nH]c1=S)CCC2 |
| 53.86 | 41.22 | 95.09 | CN(C)c1ccc2cccc(O)c2n1 |
| 53.23 | 50.39 | 103.6 | N#CSC(C#N)Cc1ccccc1 (stereo not drawn) |
| 52.96 | 30.71 | 83.67 | CCCOc1nc2c(c(-c3ccco3)c1C#N)CCCC2 |
| 52.6 | 50.82 | 103.4 | C/C(=N\NC(=S)Nc1ccccc1C)c1ccc(O)cc1 |
| 52.3 | 69.99 | 122.3 | C=CCSc1nnc(-c2ccc(C(C)(C)C)cc2)n1Cc1ccco1 |
| 52.28 | 25.26 | 77.55 | COC(=O)c1c(NC(=S)Nn2cnnc2)sc2c1CCC(C)C2 (stereo not drawn) |
| 52.14 | 53.49 | 105.6 | O=C(/C=C/c1ccc(Br)o1)OCC(=O)c1c[nH]c2ccccc12 |
| 52.14 | 49.44 | 101.6 | CCC(c1nnc(SCC(=O)NCCc2ccc(Cl)cc2Cl)o1)N(C)C (stereo not drawn) |
| 51.73 | 51.21 | 102.9 | C=C/C(=C\C)N(CC)S(=O)(=O)c1ccc(Oc2ccc(-n3ccnc3)cc2)nc1 |
| 50.97 | 47.31 | 98.28 | Cc1nn(-c2ccccc2)c2nc3ccccc3c(N3CCOCC3)c12 |

From patent US20150315211A1, “SMALL MOLECULES FOR THE MODULATION OF MCL-1 AND METHODS OF MODULATING CELL DEATH, CELL DIVISION, CELL DIFFERENTIATION AND METHODS OF TREATING DISORDERS” (priority 2010, published 2015)
